Results published in PubChem BioAssay (NCI).
Where “and” joins values, the source holds several entries; their conditions need not be identical. Identical values can stand only once.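 Exposure lasted 48 hours, with cells grown in 96-well plates and compounds tested at five concentrations. GI50: concentration for 50% inhibition of growth. Definition used: TGI = concentration required for complete inhibition of growth.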

Experiments:
Test in all cases: DTP human tumour cell line panel, 48 h
[1] = tested on: EKVX NSCLC
[2] = tested on: HS 578T breast
[3] = tested on: K-562 leukemia
[4] = tested on: KM12 colon
[5] = tested on: MOLT-4 leukemia
[6] = tested on: NCI-H460 lung
[7] = tested on: OVCAR-3 ovarian
[8] = tested on: SK-MEL-5 melanoma
[9] = tested on: SNB-75 CNS
[10] = tested on: UO-31 renal

## CCOC(=O)c1cc2cc([N+](=O)[O-])ccc2oc1=O
[1]
  TGI: > 100 µM
[2]
  TGI: > 100 µM
[3]
  TGI: > 100 µM
[4]
  TGI: > 100 µM
[5]
  TGI: > 100 µM
[6]
  TGI: > 100 µM
[7]
  TGI: > 100 µM
[8]
  TGI: > 100 µM
[9]
  TGI: > 100 µM
[10]
  TGI: > 100 µM

## CC(=O)OCC1OC(O[C@@H]2C[C@H]3C(C)(C)[C@H](OC(C)=O)CC[C@]3(C)[C@H]3CC[C@@H]4[C@]5(CC[C@@]4(C)[C@@]32C)O[C@@H]([C@H](O)C(C)(C)O)C[C@@H]5C)C(O)C(O)C1O (some centres undefined)
[1]
  GI50: 9.52 µM
  TGI: 28.5 µM
[2]
  GI50: 9.3 µM
  TGI: 25.4 µM
[3]
  GI50: 4.51 µM
  TGI: 25.1 µM
[4]
  GI50: 2 µM
  TGI: 7.68 µM
[5]
  GI50: 3.13 µM
  TGI: 12.2 µM
[6]
  GI50: 6.54 µM
  TGI: 20.8 µM
[7]
  GI50: 7.05 µM
  TGI: 20.5 µM
[8]
  GI50: 10.7 µM
  TGI: 22.5 µM
[9]
  GI50: 5.13 µM
  TGI: 18.4 µM
[10]
  GI50: 7.85 µM
  TGI: 20.8 µM

## COc1cc([N+](=O)[O-])c2ncccc2c1O
[1]
  GI50: 18.8 µM
  TGI: 78.1 µM
[2]
  GI50: 2.74 µM
  TGI: 27.3 µM
[3]
  GI50: 38.2 µM
  TGI: > 100 µM
[4]
  GI50: 2.18 µM
  TGI: 7.02 µM
[5]
  GI50: 49.1 µM
  TGI: > 100 µM
[6]
  GI50: 2.86 µM
  TGI: > 100 µM
[7]
  GI50: 4.76 µM
  TGI: 37.3 µM
[8]
  GI50: 1.47 µM
  TGI: 2.9 µM
[9]
  GI50: 2.96 µM
  TGI: 17.2 µM
[10]
  GI50: 2.05 µM
  TGI: 10.4 µM

## CCc1ccc(/C=C2/SC(=S)NC2=O)cc1
[1]
  GI50: 21.9 µM
  TGI: 73.2 µM
[2]
  GI50: 16.3 µM
  TGI: 70.6 µM
[3]
  GI50: 29.3 µM
  TGI: > 100 µM
[4]
  GI50: 25.1 µM
  TGI: > 77.3 µM
[5]
  GI50: 23.5 µM
  TGI: 84.3 µM
[6]
  GI50: 20.7 µM
  TGI: 54.8 µM
[7]
  GI50: 16.9 µM
  TGI: 35.3 µM
[8]
  GI50: 14.9 µM
  TGI: 37.6 µM
[9]
  GI50: 21.7 µM
  TGI: > 100 µM
[10]
  GI50: 13.2 µM
  TGI: 33.1 µM

## COc1cc(Nc2ncc(-c3ccccc3)o2)cc(OC)c1OC
[1]
  GI50: > 6.86 µM
  TGI: > 25 µM
[2]
  GI50: 0.278 µM
  TGI: 4.55 µM
[3]
  GI50: 0.401 µM
  TGI: > 25 µM
[4]
  GI50: 0.152 µM
  TGI: > 25 µM
[5]
  GI50: 4.36 µM
  TGI: > 25 µM
[6]
  GI50: 0.161 µM
  TGI: > 25 µM
[7]
  GI50: 3.94 µM
  TGI: 24.9 µM
[8]
  GI50: 0.138 µM
[9]
  GI50: 0.577 µM
  TGI: > 19.2 µM
[10]
  GI50: 1.84 µM
  TGI: > 25 µM

## C=C1C(=O)O[C@H]2[C@H](OC(C)=O)[C@@H](C)CCC/C(C)=C/CC[C@]3(CO3)[C@H](O)C[C@@H]12
[1]
  GI50: 4.52 µM
  TGI: 17.3 µM
[2]
  GI50: 14.4 µM
  TGI: 35.3 µM
[3]
  GI50: 1.85 µM
  TGI: 5.06 µM
[4]
  GI50: 2.33 µM
  TGI: 8.96 µM
[5]
  GI50: 2.28 µM
  TGI: 5.82 µM
[6]
  GI50: 5.35 µM
  TGI: 17.5 µM
[7]
  GI50: 2.36 µM
  TGI: 5.69 µM
[8]
  GI50: 13.4 µM
  TGI: 27.4 µM
[9]
  GI50: 10.8 µM
  TGI: 22.9 µM
[10]
  GI50: 6.29 µM
  TGI: 19.9 µM

## O=C(O)C(O)C(O)C1[O][Sb][O]C1CO (centres undefined)
[1]
  GI50: > 100 µM
  TGI: > 100 µM
[2]
  GI50: > 100 µM
  TGI: > 100 µM
[3]
  GI50: > 100 µM
  TGI: > 100 µM
[4]
  GI50: > 100 µM
  TGI: > 100 µM
[5]
  GI50: > 100 µM
  TGI: > 100 µM
[6]
  GI50: > 100 µM
  TGI: > 100 µM
[7]
  GI50: > 100 µM
  TGI: > 100 µM
[8]
  GI50: 27.2 µM and 12.7 µM
  TGI: > 100 µM and 30.7 µM
[9]
  GI50: > 100 µM
  TGI: > 100 µM
[10]
  GI50: > 100 µM
  TGI: > 100 µM

## C[C@@H]1CC[C@H]2C(CN3CCN(CC4=C(C(F)(F)F)O[C@@H]5O[C@@]6(C)CC[C@H]7[C@H](C)CC[C@@H]4[C@@]57OO6)CC3)=C(C(F)(F)F)O[C@@H]3O[C@@]4(C)CC[C@@H]1[C@]32OO4
[1]
  GI50: 3.14 µM
  TGI: > 100 µM
[2]
  GI50: 1.75 µM
  TGI: > 47.3 µM
[3]
  GI50: 1.09 µM
  TGI: > 100 µM
[4]
  GI50: 0.944 µM
  TGI: > 26.6 µM
[5]
  GI50: 5.35 µM
  TGI: > 100 µM
[6]
  GI50: 3.14 µM
  TGI: > 100 µM
[7]
  GI50: 1.84 µM
  TGI: > 24.9 µM
[8]
  GI50: 2.96 µM
  TGI: > 100 µM
[9]
  GI50: 1.74 µM
  TGI: > 29.4 µM
[10]
  GI50: 2.67 µM
  TGI: 85.8 µM
